Patent publication US12083231B2, “Starch-based double-loaded functional nano particle as well as preparation method and application” (Hefei University of Technology, priority 2021, dated 2024)

Assay: Retention rate of quercetin and anthocyanin during storage for 14 days
Assay type: physicochemical
Conditions: after being stored for 14 days; nanoparticle with EHT:carboxymethyl dextrin mass ratio 1:1
Text: It can be seen from FIG. 8 that quercetin and anthocyanin alone are easy to degrade in the environment, and only about 20% of quercetin and anthocyanin can be retained after being stored for 14 days. […] The significant increase of retention rate proves that the starch-based double-loaded functional colloid nanoparticle can effectively protect quercetin and anthocyanin from being degraded.

Row | Molecule | retention rate of anthocyanin | retention rate of quercetin
1 | anthocyanin | about 20% | –
2 | O=c1c(O)c(-c2ccc(O)c(O)c2)oc2cc(O)cc(O)c12 [quercetin] | – | about 20%
